Reference: patent publication US5756301A, “Endogenous taxol-like substance in human serum, monoclonal antibodies directed thereto and methods of assaying therefor” (The Trustees of Columbia University in the City of New York, priority 1993, dated 1998)
Entries after “also recorded” stand apart in the source; their conditions may differ. Like-named read-outs stand apart in the source and are kept apart here.

Key:
KB cells = conditions: cited from earlier work
[1] = test system: rabbit anti-taxol antiserum; assay: RIA: inhibition of binding of rabbit anti-taxol antiserum to [3H]taxol; conditions: for Affinity of rabbit antibodies (in words): [3H]taxol
Description: (§1) Bound ligand was separated from free by the addition of 100 ul of a 2.5% dextran-coated charcoal solution in RIA buffer, incubation for 3 min at 4° C. and centrifugation in an Eppendorf centrifuge for 2 min.

29B7B3C = assay: Competitive ELISA, inhibition of binding of 29B7B3C to taxol-RSA; set-up: species or system mouse
Description: (§2) Spleen cells were fused with nonsecreting myeloma cells P3 ×63-Ag8.653 (13), according to the method of Sharon et al. (14). […] Clones positive by competitive ELISA were subcloned twice by limiting dilution. Ascites were obtained by injecting 10^6 to 10^7 cells i.p. into BALB/c mice that had been primed with IFA i.p. 5 days before.
(§3) The wells were washed with PBS-T-20 three times and blocked with 200 ul of PBS, containing 1% fetal calf serum, for 1 hour at 37° C. […] After washing four times with PBS-T-20, bound antibodies were detected with 100 ul of 1/3000 dilution of peroxidase-labeled goat anti-mouse IgG+IgM in PBS-T-20 for 1 hour at 37° C. Color was developed and absorbance was measured as described above.

69E4A8E = assay: Competitive ELISA, inhibition of binding of 69E4A8E to taxol-RSA; set-up: species or system mouse
Description: as §2, §3

[2] = test system: antibodies specific for taxol (one rabbit antiserum and two monoclonal antibodies); assay: Binding to all of the antibodies (rabbit antiserum, 69E4A8E, 29B7B3C); set-up: species or system rabbit; mouse; conditions: 69E4A8E and 29B7B3C
Description: as §3, with “Polystyrene microplates were coated with 100 ul of taxol-RSA (250ng/ml) in 0.1 M sodium bicarbonate, pH=9.3, overnight at 4° C. The” for “The”
as §1

[3] = read-out: Peak taxol level in plasma; 200 to 250 mg/m^2 infusion over 24 hours; cited from earlier work
[4] = test system: ovarian and breast cancer and melanoma; conditions: clinical trials; cited from earlier work
[5] = clinical trials; cited from earlier work
microtubules / tubulin = conditions: cited from earlier work
tumor = conditions: cited from earlier work
[6] = relative to taxol = 1, data from reference 10

SMILES: CC(=O)O[C@@]12CO[C@@H]1C[C@H](O)[C@@]1(C)C(=O)[C@H](O)C3=C(C)[C@@H](O)C[C@@](O)([C@@H](OC(=O)c4ccccc4)[C@H]21)C3(C)C [10-deacetylbaccatin III]
- Relative IC50, cytotoxicity (KB cells) (KB cells; human): 400

SMILES: CC[Si](CC)(CC)O[C@@H](C(=O)O[C@H]1C[C@@]2(O)[C@@H](OC(=O)c3ccccc3)[C@@H]3[C@]4(OC(C)=O)CO[C@@H]4C[C@H](O)[C@@]3(C)C(=O)[C@H](OC(C)=O)C(=C1C)C2(C)C)[C@@H](NC(=O)c1ccccc1)c1ccccc1 [2'-(Triethylsiyl) taxol, 2'-(triethylsilyl)taxol]
- Relative IC50, cytotoxicity (KB cells) (KB cells; human): 30,000

SMILES: CC(=O)OC[C@@]1(O)[C@H]2[C@H](OC(=O)c3ccccc3)[C@]3(O)C[C@H](OC(=O)[C@H](O)[C@@H](NC(=O)c4ccccc4)c4ccccc4)C(C)=C([C@@H](OC(C)=O)C(=O)[C@]2(C)[C@@H](O)C[C@@H]1O)C3(C)C [20-acetoxy-4-deacetyl-5-epi-20,0-secotaxol]
- Affinity lower than taxol (orders of magnitude) ([1]; RIA, lower than taxol): about 3 orders of magnitude
- Relative IC50, cytotoxicity (KB cells) (KB cells; [6]): > 100,000

SMILES: C/C=C(\C)C(=O)N[C@@H](c1ccccc1)[C@@H](O)C(=O)O[C@H]1C[C@@]2(O)[C@@H](OC(=O)c3ccccc3)[C@@H]3[C@]4(OC(C)=O)CO[C@@H]4C[C@H](O)[C@@]3(C)C(=O)[C@H](OC(C)=O)C(=C1C)C2(C)C [Cephalomannine, cephalomannine]
- Affinity of rabbit antibodies (in words) ([1]; RIA): almost equal affinity
- Binding affinity of 29B7B3C (in words) (29B7B3C; competitive ELISA): higher binding affinities
- Relative IC50, cytotoxicity (KB cells) (KB cells; [6]): 3.2

SMILES: CC(=O)O[C@@]12CO[C@@H]1C[C@H](O)[C@@]1(C)C(=O)[C@H](O)C3=C(C)[C@@H](OC(=O)[C@H](O)[C@@H](NC(=O)OC(C)(C)C)c4ccccc4)C[C@@](O)([C@@H](OC(=O)c4ccccc4)[C@H]21)C3(C)C [Taxotere]
- Affinity of rabbit antibodies (in words) ([1]; RIA): inability of the rabbit serum and 69E4A8E to recognize taxotere
- Affinity lower than taxol (fold) ([1]; RIA, lower affinity than taxol): 100 fold
- Binding affinity of 29B7B3C (in words) (29B7B3C; competitive ELISA): binds taxotere as well as it does taxol
- Binding affinity / recognition by 69E4A8E (in words) (69E4A8E; competitive ELISA): recognized poorly; also recorded: inability of the rabbit serum and 69E4A8E to recognize taxotere

SMILES: CC(=O)O[C@H]1C(=O)[C@@]2(C)[C@H]([C@H](OC(=O)c3ccccc3)[C@]3(O)C[C@H](O)C(C)=C1C3(C)C)[C@]1(OC(C)=O)CO[C@@H]1C[C@@H]2O [Baccatin III, baccatin III]
- Affinity lower than taxol (orders of magnitude) [1]: about 3 orders of magnitude
- Relative IC50, cytotoxicity (KB cells) (KB cells; human): 1,700

SMILES: CC(=O)O[C@H]1C(=O)[C@@]2(C)[C@H]([C@H](OC(=O)c3ccccc3)[C@]3(O)C[C@H](OC(=O)[C@H](O)[C@@H](NC(=O)c4ccccc4)c4ccccc4)C(C)=C1C3(C)C)[C@]1(OC(C)=O)CO[C@@H]1C[C@@H]2O [Taxol]
- Affinity of rabbit antibodies (in words) ([1]; RIA): almost equal affinity
- Binding affinity of 29B7B3C (in words) (29B7B3C): higher binding affinities
- IC50 (29B7B3C; ELISA, 29B7B3C): ~100 nM
- Binding affinity / recognition by 69E4A8E (in words) (69E4A8E): higher binding affinities
- IC50 (69E4A8E; ELISA, 69E4A8E): ~100 nM
- Binding by all antibodies (in words) [2]: bind taxol and active derivatives well
- Cmax [3]: > 600 nM
- Clinical efficacy [4]: affective in the treatment of ovarian (5, 6) and breast cancer (7) and melanoma (8)
- Side effects [5]: neutropenia, hypersensitivity reactions mucositis, neurological and possible cardiac toxicity
- Effect on microtubule assembly / tubulin polymerization (microtubules / tubulin): promote and stabilize microtubule assembly and inhibit disassembly to tubulin
- Antitumor activity (tumor): shown to have antitumor activity

SMILES: CC(=O)O[C@H]1C(=O)[C@]2(C)[C@H](O)C[C@H]3OC[C@@]3(OC(C)=O)[C@H]2[C@H](OC(=O)c2ccccc2)[C@]2(O)C[C@H](OC(=O)[C@H](O)[C@@H](NC(=O)c3ccccc3)c3ccccc3)C(C)=C1C2(C)C [7-Epitaxol, 7-epitaxol]
- Binding affinity of 29B7B3C (in words) (29B7B3C; competitive ELISA): higher binding affinities
- Binding affinity / recognition by 69E4A8E (in words) (69E4A8E; competitive ELISA): higher binding affinities

SMILES: COc1cc([C@@H]2c3cc4c(cc3[C@H](O)[C@H]3COC(=O)[C@H]23)OCO4)cc(OC)c1OC [podophyllotoxin]
- Effect on microtubule assembly / tubulin polymerization (microtubules / tubulin): inhibit tubulin polymerization

SMILES: CC[C@]1(O)C[C@@H]2CN(CCc3c([nH]c4ccccc34)[C@@](C(=O)OC)(c3cc4c(cc3OC)N(C)[C@H]3[C@@](O)(C(=O)OC)[C@H](OC(C)=O)[C@]5(CC)C=CCN6CC[C@]43[C@@H]65)C2)C1 [vinblastine]
- Effect on microtubule assembly / tubulin polymerization (microtubules / tubulin): inhibit tubulin polymerization
